Reference: PubChem BioAssay AID463206 (Broad Institute, 2010)
The source made the active and inactive calls.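 The calls were made as follows: active = caspase luminescence falls with dose and the half-maximal concentration AC50 from the fitted curve is at or below a set limit; inconclusive = flat fit at 30 to 70% signal loss, or invalid fit; inactive = AC50 above the limit, or signal rises instead.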

system: INS-1E cytokine-induced caspase-3/7, Caspase-Glo luminescence, 48 h; assay: inhibitors of cytokine-induced caspase-3/7 activity, dose response, orthogonal assay for beta-cell apoptosis protection project, INS-1E rat cells, luminescence (AID 463206)

Question: For `O=C1C(Nc2ccccc2)=C/C(=N/S(=O)(=O)c2cccs2)c2ccccc21`, which AC50 is on record?
Answer: > 26 µM (inactive)

Question: For `CC(C)n1cnc2c(NCc3ccccc3)cc(N[C@H](C)CO)cc21`, which AC50 is on record?
Answer: > 26 µM (inactive)

Question: For `CC(=O)c1ccc(N2CCN(S(=O)(=O)c3ccc4c(c3)CC(C)N4C(C)=O)CC2)cc1` (stereo unspecified), which AC50 is on record?
Answer: > 26 µM (inactive)

Question: For `CC1=C(C)/C(=N\OS(=O)(=O)c2ccccc2)C=CC1=O`, which AC50 is on record?
Answer: > 26 µM (inactive)

Question: For `Cc1cc(C(C)(C)C)cc(C)c1Cn1c2[n+](c3ccc(C(F)(F)F)cc31)CCCCC2`, which AC50 is on record?
Answer: > 26 µM (inactive)

Question: `Cc1cc(OCC(=O)N(C)Cc2ccccc2)ccc1Cl` was tested. Which AC50 did it give?
Answer: > 26 µM (inactive)

Question: How did the AC50 turn out when `CC(C)(C)c1ccc(C2CC2C(=O)N/N=C\c2ccc[nH]2)cc1` (stereo unspecified) was run?
Answer: > 26 µM (inactive)

Question: `COC(=O)c1ccc(NC(=O)c2cccnc2)cc1` was tested. Which AC50 did it give?
Answer: > 26 µM (inactive)

Question: `CCN1/C(=C/C=C/c2sc3ccccc3[n+]2CC)Sc2ccccc21` was tested. Which AC50 did it give?
Answer: > 26 µM (inactive)

Question: For `CC(C)CN(C(=O)COC(=O)C12CC3CC(CC(C3)C1)C2)c1c(N)n(Cc2ccccc2)c(=O)[nH]c1=O`, which AC50 is on record?
Answer: > 26 µM (inactive)

Question: How did the AC50 turn out when `Cc1cc2c(NCCc3ccccc3)ncnc2s1` was run?
Answer: > 26 µM (inactive)

Question: How did the AC50 turn out when `COc1ccc(C2CC(c3ccc4ccccc4c3OC(C)=O)=NN2C(C)=O)cc1` (stereo unspecified) was run?
Answer: > 26 µM (inactive)

Question: Which AC50 does the source give for `O=C(N/N=C/c1ccc([N+](=O)[O-])o1)c1ccc(O)cc1` here?
Answer: > 26 µM (inactive)

Question: How did the AC50 turn out when `O=c1[nH]c(=O)n(-c2ccc(F)cc2)c2c1C(C(F)(F)F)(C(F)(F)F)N=C(c1ccc(F)cc1)N2` was run?
Answer: > 26 µM (inactive)

Question: With `O=C1/C(=C\c2cccnc2)CN(Cc2ccccc2)C/C1=C\c1cccnc1` as the molecule, how does the AC50 read?
Answer: > 26 µM (inactive)

Question: Which AC50 does the source give for `COc1cnc(-c2ccccn2)nc1N(C)c1ccccc1` here?
Answer: > 26 µM (inactive)

Question: `O=C(Nc1ccc(F)cc1F)N1CCCN(CCOc2ccccc2)CC1` was tested. Which AC50 did it give?
Answer: > 26 µM (inactive)

Question: Which AC50 does the source give for `Cc1c(Cl)c([N+](=O)[O-])nn1Cc1ccc(C(=O)N/N=C\c2cc(Cl)ccc2O)o1` here?
Answer: > 26 µM (inactive)

Question: Which AC50 does the source give for `COc1ccc(OC)c2[nH]c(C(=O)N/N=C/c3ccccc3O)cc12` here?
Answer: > 26 µM (inactive)

Question: With `C[C@@H]1CN([C@H](C)CO)C(=O)c2cc(NC(=O)Nc3ccc(C(F)(F)F)cc3)ccc2O[C@H]1CN(C)S(=O)(=O)c1cccs1` as the molecule, how does the AC50 read?
Answer: > 26 µM (inactive)

Question: How did the AC50 turn out when `Cc1cc(C(=O)c2ccc3ccccc3c2)c(C)o1` was run?
Answer: > 26 µM (inactive)

Question: With `CCS(=O)(=O)c1ncc(Cl)c(C(=O)Nc2ccc(S(=O)(=O)N(C)c3ccccc3)cc2)n1` as the molecule, how does the AC50 read?
Answer: > 26 µM (inactive)

Question: How did the AC50 turn out when `Cc1cc(C)nc(N/N=C2/CCCC/C2=C\c2ccccc2)n1` was run?
Answer: > 26 µM (inactive)

Question: With `CC(=O)CSc1ccc(-c2nc3ccccc3[nH]2)cn1` as the molecule, how does the AC50 read?
Answer: > 26 µM (inactive)

Question: With `S=C(c1cn(CCOc2cccc3ccccc23)c2ccccc12)N1CCCC1` as the molecule, how does the AC50 read?
Answer: > 26 µM (inactive)

Question: `O=C(NCc1ccccn1)c1cc(-c2ccc(Cl)cc2)oc1C(F)(F)F` was tested. Which AC50 did it give?
Answer: > 26 µM (inactive)

Question: For `CC(=O)N(C)C1=C(N2CCOCC2)C(=O)c2ccccc2C1=O`, which AC50 is on record?
Answer: > 26 µM (inactive)

Question: How did the AC50 turn out when `CC(C)Cn1c(SCC(=O)N2CCc3ccccc3C2)nc2cc(Cl)ccc2c1=O` was run?
Answer: > 26 µM (inactive)

Question: Which AC50 does the source give for `Cc1ccc(/C=N/NC(=O)c2c(-c3ccccc3)noc2C)c(O)c1` here?
Answer: > 26 µM (inactive)

Question: How did the AC50 turn out when `CCN(CC)C(=O)c1ccc(S(=O)(=O)N2CCC(c3nc4ccccc4s3)CC2)cc1` was run?
Answer: > 26 µM (inactive)

Question: For `CCSc1ccc(NC(=O)c2cccnc2)cc1`, which AC50 is on record?
Answer: > 26 µM (inactive)

Question: Which AC50 does the source give for `C/C(=N\NC(=O)c1ccc(C)cc1)c1c(C)[nH]n(-c2ccccc2)c1=O` here?
Answer: > 26 µM (inactive)

Question: With `Cc1ccccc1Oc1cc(-n2ncc(Cl)c(Cl)c2=O)ncn1` as the molecule, how does the AC50 read?
Answer: > 26 µM (inactive)

Question: With `O=C1C=C(Nc2ccc(O)cc2)C(=O)c2ccccc21` as the molecule, how does the AC50 read?
Answer: > 26 µM (inactive)

Question: How did the AC50 turn out when `Oc1ccc2ccccc2c1N=Nc1nccs1` was run?
Answer: > 26 µM (inactive)

Question: How did the AC50 turn out when `CCCCCCCCCCCCCCCC[N+](C)(C)CCN(Cc1ccc(OC)cc1)c1ncccn1` was run?
Answer: > 26 µM (inactive)

Question: `CC1Sc2ccc(S(=O)(=O)N3CCC(C(=O)Nc4ccc(Cl)cc4)CC3)cc2NC1=O` (stereo unspecified) was tested. Which AC50 did it give?
Answer: > 26 µM (inactive)

Question: Which AC50 does the source give for `CCOc1ccc(-n2c(-c3ccccc3)c[n+]3c2CCCCC3)cc1` here?
Answer: > 26 µM (inactive)

Question: Which AC50 does the source give for `CCN1c2ccccc2NC2N=C(OC)C(c3ccccc3)C21` (stereo unspecified) here?
Answer: > 26 µM (inactive)

Question: For `CCOC(=O)C1=C(c2ccc(OC)cc2)C(=O)c2ccccc2C1=O`, which AC50 is on record?
Answer: > 26 µM (inactive)

Question: For `COc1cc(-c2nc3ccc(C)cn3c2NCc2ccccc2)ccc1-c1cccc(Cl)c1`, which AC50 is on record?
Answer: > 26 µM (inactive)

Question: With `O=C(NCc1nc2ccccc2[nH]1)C1=C[C@@H](C2CCCCC2)C[C@@H](OCc2ccc(CO)cc2)O1` as the molecule, how does the AC50 read?
Answer: > 26 µM (inactive)

Question: How did the AC50 turn out when `COc1ccc2cc3[n+](cc2c1OC)CCc1cc2c(cc1-3)OCO2` was run?
Answer: > 26 µM (inactive)

Question: `COCCNc1nc2c(c(=O)n(C)c(=O)n2C)n1Cc1cccc(C(F)(F)F)c1` was tested. Which AC50 did it give?
Answer: > 26 µM (inactive)

Question: For `COc1ccc(-c2nn(-c3ccccc3)cc2C(=O)OCC(=O)c2ccc(C)c([N+](=O)[O-])c2)cc1`, which AC50 is on record?
Answer: > 26 µM (inactive)

Question: Which AC50 does the source give for `CCOC(=O)c1ccc(-[n+]2c(-c3ccccc3)cc(-c3ccccc3)cc2-c2ccccc2)cc1` here?
Answer: > 26 µM (inactive)

Question: Which AC50 does the source give for `C=CCC1(CC=C)CCCN1C(=O)c1cc(COc2ccc(C)nc2)on1` here?
Answer: > 26 µM (inactive)

Question: How did the AC50 turn out when `C=C1C(O)[C@@H]2O[C@]3(CC[C@H](/C=C/C(C)[C@@H]4CC(C)=CC5(O[C@H](C[C@@](C)(O)C(=O)O)CCC5O)O4)O3)CC[C@H]2O[C@@H]1C(O)CC(C)[C@H]1OC2(CCCCO2)CCC1C` (stereo partly specified) was run?
Answer: > 26 µM (inactive)

Question: For `Cc1cc(Br)cc(/C=N/NC(=O)c2ccc3c(c2)OCO3)c1O`, which AC50 is on record?
Answer: > 26 µM (inactive)

Question: `Cc1cc(N2CCCC2=O)cc(C)c1S(=O)(=O)NCCOc1ccc(C(C)(C)C)cc1` was tested. Which AC50 did it give?
Answer: > 26 µM (inactive)

Question: How did the AC50 turn out when `CC(=O)C1=NN(c2ccccc2)C(c2cccs2)N1c1ccc(N(C)C)cc1` (stereo unspecified) was run?
Answer: > 26 µM (inactive)

Question: `O=C(OCn1ncc(Cl)c(Cl)c1=O)c1ccccc1Cl` was tested. Which AC50 did it give?
Answer: > 26 µM (inactive)

Question: For `C/C(=N\NC(=O)c1cc(-c2cccs2)nc2ccccc12)c1ccccn1`, which AC50 is on record?
Answer: > 26 µM (inactive)

Question: For `CCCc1cc(=O)n2[nH]cc(-c3ccc(Cl)cc3)c2n1`, which AC50 is on record?
Answer: > 26 µM (inactive)

Question: `CCn1c(Cl)c(C=O)s/c1=N\S(=O)(=O)c1ccccc1` was tested. Which AC50 did it give?
Answer: > 26 µM (inactive)

Question: `Cn1cc(C(=O)N/N=C/c2c(O)ccc3ccccc23)ccc1=O` was tested. Which AC50 did it give?
Answer: > 26 µM (inactive)

Question: `O=C1C(=O)c2ccccc2-c2ccccc21` was tested. Which AC50 did it give?
Answer: > 26 µM (inactive)

Question: With `COc1ccc(NS(=O)(=O)c2cccc(NC(=O)c3ccc(S(=O)(=O)N4CCCCCC4)cc3)c2)cc1` as the molecule, how does the AC50 read?
Answer: > 26 µM (inactive)

Question: How did the AC50 turn out when `COc1ccc(C2=Nn3c(nnc3-c3ccccc3Cl)SC2)cc1OC1CCCC1` was run?
Answer: > 26 µM (inactive)

Question: `FC(F)Sc1ccc(N=C2NN=C(c3ccc4c(c3)OCCO4)CS2)cc1` was tested. Which AC50 did it give?
Answer: > 26 µM (inactive)

Question: For `COc1ccc(-n2cc(-c3ccccc3)[n+]3c2CCCCC3)cc1`, which AC50 is on record?
Answer: > 26 µM (inactive)

Question: With `Cc1cc(O)c2c(c1)C(=O)C13C(=C2O)C(=O)[C@H]2[C@@H](O)[C@@H]1[C@H]1[C@H](O)[C@@H]3C(=O)C3=C(O)c4c(O)cc(C)cc4C(=O)C312` (stereo partly specified) as the molecule, how does the AC50 read?
Answer: 21.6 µM

Question: `COc1ccc(O)c(/C=N/NC(=O)c2ccc(OCc3cccc(Br)c3)cc2)c1` was tested. Which AC50 did it give?
Answer: > 26 µM (inactive)

Question: For `O=C(N/N=C(\c1ccccc1)c1cccnc1)c1cccc(F)c1`, which AC50 is on record?
Answer: > 26 µM (inactive)

Question: For `CCN(CC)c1ccc(/C=N/NC(=O)c2cccc(S(=O)(=O)N3CCOCC3)c2)c(O)c1`, which AC50 is on record?
Answer: > 26 µM (inactive)

Question: With `CC(C)Nc1ccc(Nc2ccccc2)cc1` as the molecule, how does the AC50 read?
Answer: > 26 µM (inactive)
